Experimental data taken from patent US7638554B2, “Flavanoids as chemotherapeutic, chemopreventive, and antiangiogenic agents” (SRI International, priority 2002, dated 2009).

Experiments:
TIMP-2 = test: Western blotting of TIMP-2 protein expression, MCF-10-CA1a cells; assay type: cell-based, human
Excerpt: (§1) Western Blotting. Proteins were separated by gel electrophoresis using 4-12% pre-cast SDS-polyacrylamide gels (Invitrogen, Carlsbad, Calif.) and then electrophoretically transferred onto Hybond™-P membrane (Amersham Biosciences, Piscataway, N.J.). Blots were probed with specific antibodies (Santa Cruz Biotechnology, Inc). The ECL Plus Western Blotting Detection System of Amersham Biosciences (Piscataway, N.J.) and the procedure recommended by the manufacturer was used for the detection of antigens. Protein bands were quantified by analyzing the images obtained using an Alphaimager™ S-3400 (Alpha Innotech Corp., San Leandro, Calif.).
(§2) The effects of SR 13179 on the protein expression of TIMP-1, TIMP-2, and membrane-type 1 MMP (MT1-MMP) were studied. SR13179 induced the protein expression of TIMP-2 in a dose- and time-dependent manner. MCF-10-CA1a cells were treated with SR 13179 at 1, 3, or 5 μM concentrations for 48 h, or, alternatively, with […] SR 13179 for 8, 24, or 48 h. Cells were lysed and subjected to Western blotting.

[1] = test system: membrane-type 1 MMP (MT1-MMP); test: MT1-MMP protein expression, MCF-10-CA1a cells; assay type: cell-based, human
Excerpt: as §1, §2
The effect of SR13179 on the extracellular levels of TIMP-2 as well as MMP-2 was also investigated. Treatment of MCF-10CA1a cells with SR13179 at 5 μM concentration caused 5- to 8-fold increase in the secreted level of TIMP-2 and a 2-fold decrease in the extracellular level of MMP-2. […]

`COc1cc(C2CC(O)c3ccc4ccccc4c3O2)cc(OC)c1OC` (stereo not shown) [SR 13179, 2-(3,4,5-trimethoxyphenyl)-3,4-dihydro-2H-benzo[h]chromen-4-ol] was tested, and the “Level of TIMP-2 Protein” value (TIMP-2; 1 μM, 48 h) was 6.8, the “Level of TIMP-2 Protein” value (TIMP-2; 3 μM, 48 h) was 14.6 and the “Level of TIMP-2 Protein” value (TIMP-2; 5 μM, 48 h) was 16.2. The “Level of TIMP-2 Protein” value (TIMP-2; 8 h, 5 mM SR 13179) was 7.9, the “Level of TIMP-2 Protein” value (TIMP-2; 24 h, 5 mM SR 13179) was 14.5 and the “Level of TIMP-2 Protein” value (TIMP-2; 48 h, 5 mM SR 13179) was 15.9. The MT1-MMP protein levels [1] was “no significant effect”.
